From US10004702B2, “Linear guanidine derivatives, methods of preparation and uses thereof” (LEAD DISCOVERY SIENA S.R.L., priority 2014, dated 2018)
Converted amounts (≈) assume the structure as drawn. Like-named read-outs stand apart in the source and are kept apart here.

Tests used:
[1] = test system: Enterococcus faecalis ATCC 19433; experiment: Antimicrobial susceptibility testing, MIC by microdilution broth method; type: cell-based; details: 18-24 hours at 35-37° C.
Method: (§1) Bacterial strains were obtained from the ATCC or CCUG culture collections or present in the authors' collection of clinical isolates. Compounds were re-suspended in dimethyl sulfoxyde (DMSO) at a final concentration of 10 mg/ml and subsequently diluted in the culture medium. The minimum inhibitory concentrations (MICs) of the compounds of the invention were determined using the microdilution broth method using Mueller-Hinton broth as recommended by the Clinical Laboratory Standards Institute (CLSI [11]). Bacterial inoculum was 5×10^4 CFU/well. MICs were recorded after 18-24 hours incubation at 35-37° C.

[2] = test system: Chryseobacterium meningosepticum CCUG 4310; experiment: as above; type: cell-based; details: 18-24 hours at 35-37° C.
Method: as §1

Burkholderia cepacia RII = experiment: as above; type: cell-based; details: Mueller-Hinton broth, 18-24 hours at 35-37° C.
Method: as §1

[3] = test system: Staphylococcus aureus ATCC 25923; experiment: as above; type: cell-based; details: 18-24 hours at 35-37° C.
Method: as §1

[4] = test system: Achromobacter xylosoxidans AX 22; experiment: as above; type: cell-based; details: 18-24 hours at 35-37° C.
Method: as §1

[5] = test system: Alcaligenes faecalis 424/98; experiment: as above; type: cell-based; details: Mueller-Hinton broth, 18-24 hours at 35-37° C.
Method: as §1

Escherichia coli CCUG^T = experiment: as above; type: cell-based; details: Mueller-Hinton broth, 18-24 hours at 35-37° C.
Method: as §1

[6] = test system: Pseudomonas aeruginosa ATCC 27853; experiment: as above; type: cell-based; details: 18-24 hours at 35-37° C.
Method: as §1

[7] = test system: Acinetobacter baumannii ATCC 17978; experiment: as above; type: cell-based; details: 18-24 hours at 35-37° C.
Method: as §1

[8] = test system: Stenotrophomonas maltophilia 634/08; experiment: as above; type: cell-based; details: Mueller-Hinton broth, 18-24 hours at 35-37° C.
Method: as §1

[9] = test system: Klebsiella pneumoniae ATCC 13833; experiment: as above; type: cell-based; details: 18-24 hours at 35-37° C.
Method: as §1

[10] = test system: Bacillus subtilis ATCC 6633; experiment: as above; type: cell-based; details: 18-24 hours at 35-37° C.
Method: as §1

[11] = test system: Acinetobacter baumannii AC-54/97 (IMP-2); experiment: as above; type: cell-based; details: Acinetobacter baumannii AC-54/97 (IMP-2), Tables 2 and 3
Method: as §1
(§2) The Antibacterial activity of compound 28 was also tested on a panel of Gram-negative and Gram-positive clinical isolates, showing various antimicrobial susceptibility profiles (Table 4). The class of drugs for which the isolate was resistant to is indicated in column 2 (PEN, penicillins; ES-CEPH, expanded-spectrum cephalosporins; CARB, carbapenems; AZT; aztreonam; AG, aminoglycosides; FQ, fluoroquinolones; SXT, trimethoprim/sulfamethoxazole; FOS, fosfomycin; GLY, glycopeptides; LNZ, linezolid; COL-R, colistin resistant; COL-S colistin sensitive; PDR, poly-drug resistant).

[12] = test system: Enterobacter cloacae VA-417/02 (VIM-4); experiment: as above; type: cell-based; details: Enterobacter cloacae VA-417/02 (VIM-4); Tables 2 and 3
Method: as §1, §2

[13] = test system: Gram-positive and Gram-negative organisms; experiment: Antimicrobial susceptibility testing, overall statements on the panel; type: cell-based; details: overall comparison over the tested strains
Method: as §1

[14] = test system: Klebsiella pneumoniae 081R; experiment: Antimicrobial susceptibility testing, MIC by microdilution broth method; type: cell-based; details: Tables 2 and 3
Method: as §1, §2

Human Serum Albumin = Human Serum Albumin (Homo sapiens, UniProt P02768); experiment: Binding fluorimetric assay (tryptophan quenching); details: fixed concentration of HSA titrated with different amounts of compound
Sequence of Human Serum Albumin (P02768 25-609): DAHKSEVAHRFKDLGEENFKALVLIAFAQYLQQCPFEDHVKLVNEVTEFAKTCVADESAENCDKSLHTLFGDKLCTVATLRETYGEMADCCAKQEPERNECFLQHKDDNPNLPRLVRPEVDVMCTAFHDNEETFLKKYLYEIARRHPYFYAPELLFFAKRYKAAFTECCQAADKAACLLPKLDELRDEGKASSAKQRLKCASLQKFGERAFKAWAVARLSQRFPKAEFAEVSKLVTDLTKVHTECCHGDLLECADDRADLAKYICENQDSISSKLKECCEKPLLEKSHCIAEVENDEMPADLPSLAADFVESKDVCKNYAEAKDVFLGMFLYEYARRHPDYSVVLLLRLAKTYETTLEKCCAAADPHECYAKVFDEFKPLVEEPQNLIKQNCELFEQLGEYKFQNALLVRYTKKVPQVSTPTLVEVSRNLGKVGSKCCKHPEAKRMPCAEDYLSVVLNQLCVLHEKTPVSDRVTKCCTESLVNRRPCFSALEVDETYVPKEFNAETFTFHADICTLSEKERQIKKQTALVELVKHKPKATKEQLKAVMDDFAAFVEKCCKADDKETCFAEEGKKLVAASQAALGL
Method: The solutions were mixed and after allowing 30 minutes at room temperature to reach the equilibrium conditions, the spectra were recorded. […] The percentages obtained were plotted against the concentrations used and the KD values were calculated using GraphPad software (version 5.0).

[15] = ATCC19433, Mueller-Hinton broth, read-out: MIC
[16] = Elizabethkingia meningoseptica, CCUG4310, Mueller-Hinton broth, read-out: MIC
[17] = ATCC25923, Mueller-Hinton broth, read-out: MIC
[18] = AX22, Mueller-Hinton broth, read-out: MIC
[19] = ATCC27853, Mueller-Hinton broth, read-out: MIC
[20] = ATCC17978, Mueller-Hinton broth, read-out: MIC
[21] = ATCC13833, Mueller-Hinton broth, read-out: MIC
[22] = ATCC6633, Mueller-Hinton broth, read-out: MIC

Row | Structure (SMILES) | MIC [1, 15] [µg/mL] | MIC [2, 16] [µg/mL] | MIC (Burkholderia cepacia RII; read-out: MIC) [µg/mL] | MIC [3, 17] [µg/mL] | MIC [4, 18] [µg/mL] | MIC ([5]; read-out: MIC) [µg/mL] | MIC (Escherichia coli CCUG^T; read-out: MIC) [µg/mL] | MIC [6, 19] [µg/mL] | MIC [7, 20] [µg/mL] | MIC ([8]; read-out: MIC) [µg/mL] | MIC [9, 21] [µg/mL] | MIC [10, 22] [µg/mL] | MIC ([1]; Mueller-Hinton broth) [µg/mL] | MIC ([2]; Mueller-Hinton broth) [µg/mL] | MIC (Burkholderia cepacia RII) [µg/mL] | MIC ([3]; Mueller-Hinton broth) [µg/mL] | MIC ([4]; Mueller-Hinton broth) [µg/mL] | MIC [5] [µg/mL] | MIC (Escherichia coli CCUG^T) [µg/mL] | MIC ([6]; Mueller-Hinton broth) [µg/mL] | also measured
1 | N=C(N)NCCCCCCN(CCCCCCNC(=N)NCC1CC1)C(=O)N(CCCCCCNC(=N)N)CCCCCCNC(=N)NCC1CC1 [Compound 31, 1,3-bis(6-(3-(cyclopropylmethyl)guanidino)hexyl)-1,3-bis(6-guanidinohexyl)urea] | 32 (≈ 43.6 µM) | > 256 | > 256 | 4 (≈ 5.46 µM) | > 256 | > 256 | 16 (≈ 21.8 µM) | 256 (≈ 349 µM) | 128 (≈ 175 µM) | > 256 | 32 (≈ 43.6 µM) | 4 (≈ 5.46 µM) | – | – | – | – | – | – | – | – | –
2 | N=C(N)NCCCCCCCCN(CCCCCCCCNC(=N)NCC1CC1)C(=O)NC(=N)NCCCCCCCCNCCCCCCCCNC(=N)NCC1CC1 [Compound 30, 1-(8-carbamimidamidooctyl)-1-[8-[[N-(cyclopropylmethyl)carbamimidoyl]amino]octyl]-3-[N-[8-[8-[[N-(cyclopropylmethyl)carbamimidoyl]amino]octylamino]octyl]carbamimidoyl]urea] | 8 (≈ 9.46 µM) | > 256 | 128 (≈ 151 µM) | 4 (≈ 4.73 µM) | > 256 | 32 (≈ 37.9 µM) | > 256 | > 256 | > 256 | > 256 | > 256 | < 0.125 | – | – | – | – | – | – | – | – | MIC ([11]; Acinetobacter baumannii, read-out: MIC): 32 µg/mL (≈ 37.9 µM)
3 | N=C(N)NCCCCCCN(CCCCCCNC(=N)NCC1CC1)C(=O)NC(=N)NCCCCCCNCCCCCCNC(=N)NCC1CC1 [Compound 33, 1-(6-carbamimidamidohexyl)-1-[6-[[N-(cyclopropylmethyl)carbamimidoyl]amino]hexyl]-3-[N-[6-[6-[[N (cyclopropylmethyl)carbamimidoyl]amino]hexylamino]hexyl]carbamimidoyl]urea] | – | – | – | – | – | – | – | – | – | – | – | – | 32 (≈ 43.6 µM) | >256 | >256 | 16 (≈ 21.8 µM) | >256 | >256 | 32 (≈ 43.6 µM) | >256 | MIC ([7]; Mueller-Hinton broth): 256 µg/mL (≈ 349 µM); MIC [8]: >256 µg/mL; MIC ([9]; Mueller-Hinton broth): 64 µg/mL (≈ 87.3 µM); MIC ([10]; Mueller-Hinton broth): 8 µg/mL (≈ 10.9 µM); MIC [11]: 8 µg/mL (≈ 10.9 µM); MIC [12]: 64 µg/mL (≈ 87.3 µM)
4 | N=C(N)NCCCCCCCCN(CCCCCCCCNC(=N)NCC1CC1)C(=O)N(CCCCCCCCNC(=N)NCC1CC1)CCCCCCCCNC(=N)NC(=O)NCCCCCCCCNCCCCCCCCNC(=N)NCC1CC1 [Compound 32, 1,3-bis(8-(3-(cyclopropylmethyl)guanidino)octyl)-1-(8-guanidinooctyl)-3-(8-((3-(8-((8-(3-(cyclopropylmethyl))guanidinooctyl)amino)octyl)carbamoyl)guanidino)octyl)urea] | – | – | – | – | – | – | – | – | – | – | – | – | <0.125 | 64 (≈ 51.7 µM) | 128 (≈ 103 µM) | 8 (≈ 6.46 µM) | 64 (≈ 51.7 µM) | 32 (≈ 25.8 µM) | 8 (≈ 6.46 µM) | 32 (≈ 25.8 µM) | antimicrobial spectrum (in words) [13]: active against both Gram-positive and Gram-negative organisms; MIC ([7]; Mueller-Hinton broth): 32 µg/mL (≈ 25.8 µM); MIC [8]: 64 µg/mL (≈ 51.7 µM); MIC ([9]; Mueller-Hinton broth): 8 µg/mL (≈ 6.46 µM); MIC ([10]; Mueller-Hinton broth): 8 µg/mL (≈ 6.46 µM); MIC [11]: 16 µg/mL (≈ 12.9 µM); MIC [12]: 16 µg/mL (≈ 12.9 µM); MIC [14]: 16 µg/mL (≈ 12.9 µM)
5 | NC(=O)N1c2ccccc2C=Cc2ccccc21 [CARBAMAZEPINE, Carbamazepine, reference compound] | – | – | – | – | – | – | – | – | – | – | – | – | – | – | – | – | – | – | – | – | intrinsic fluorescence decrease of HSA (Human Serum Albumin): remarkable intrinsic fluorescence decrease
